How the values were obtained:
MAP2K1 = MAP2K1 (Homo sapiens, UniProt Q02750); test: Kinase selectivity profiling
DCAMKL2 = DCAMKL2 (Homo sapiens, UniProt Q8N568); test: Kinase selectivity profiling
FYNa = FYNa (Homo sapiens, UniProt P06241); test: Kinase selectivity profiling
EPHB1 = EPHB1 (Homo sapiens, UniProt P54762); test: Kinase selectivity profiling
PLK3 = PLK3 (Homo sapiens, UniProt Q9H4B4); test: Kinase selectivity profiling
p38α = p38α (Homo sapiens, UniProt Q16539); test: Kinase selectivity profiling
Chain of p38α (Q16539 whole entry): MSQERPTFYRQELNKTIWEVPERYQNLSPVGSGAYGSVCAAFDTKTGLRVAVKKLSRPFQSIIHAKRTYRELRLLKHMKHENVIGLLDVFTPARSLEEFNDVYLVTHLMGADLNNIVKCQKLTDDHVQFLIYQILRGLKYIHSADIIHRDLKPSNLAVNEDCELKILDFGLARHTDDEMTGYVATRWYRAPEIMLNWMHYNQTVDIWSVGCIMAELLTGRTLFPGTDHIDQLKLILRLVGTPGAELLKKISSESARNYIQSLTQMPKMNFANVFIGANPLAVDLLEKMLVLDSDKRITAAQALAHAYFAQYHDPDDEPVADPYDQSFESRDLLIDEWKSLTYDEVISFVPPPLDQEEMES

AKT3 = AKT3 (Homo sapiens, UniProt Q9Y243); test: Kinase selectivity profiling
ROCK1 = ROCK1 (Homo sapiens, UniProt Q13464); test: Kinase selectivity profiling
FGFR2 = FGFR2 (Homo sapiens, UniProt P21802); test: Kinase inhibition assay (ADP-Glo); type: biochemical; parameters: FGFR2 (residues 453–770); 6xHis + PreScission site (N, cleaved yes); made in house; host or cells: Escherichia coli Rosseta
Protocol: (§1) Wild-type FGFRs and mutant FGFRs were prepared as previously described[25]–[27]. In brief, the kinase domains of human FGFR1 (residues 456–765), FGFR2 (residues 453–770), FGFR3 (residues 450–758), and FGFR4 (residues 445–753) were cloned into a modified pET28a expression vector and then transfected into Escherichia coli Rosseta cells. The N-terminal of the recombinant proteins were contained a 6xHis tag followed by a PreScission cleavage site for FGFR1, FGFR2, FGFR3, and FGFR4. Site-directed mutagenesis of FGFR4 was generated according to the ClonExpress II One Step Cloning Kit (Vazyme) using the pET28a-FGFR4 plasmid as the template. These mutants were confirmed by DNA sequencing (Tsingke, Changsha, China). For crystallization experiments, the wild-type FGFR4 plasmid was co-expressed with untagged YOPH to obtain non-phosphorylated proteins. The proteins were first purified by Ni-NTA affinity chromatography. […]
(§2) All kinase inhibition assays were performed with optimized kinase assay buffer consisting of 40 mM Tris-HCl pH 7.5, 20 mM MgCl2, 20 mM NaCl, 0.1 mg/mL BSA, 1 mM TCEP, and 4% DMSO. […] Fluorescence was measured on a multimode plate reader (Perkin-Elmer) using a chemiluminescence program after the addition of the detection reagent. IC50 values were determined using a three-parameter log [Inhibitor] versus response model in GraphPad Prism software.

HIPK1 = HIPK1 (Homo sapiens, UniProt Q86Z02); test: Kinase selectivity profiling
CK1γ1 = CK1γ1 (Homo sapiens, UniProt Q9HCP0); test: Kinase selectivity profiling
TRKB = TRKB (Homo sapiens, UniProt Q16620); test: Kinase selectivity profiling
GSK3β = GSK3β (Homo sapiens, UniProt P49841); test: Kinase selectivity profiling
Chain of GSK3β (P49841 whole entry): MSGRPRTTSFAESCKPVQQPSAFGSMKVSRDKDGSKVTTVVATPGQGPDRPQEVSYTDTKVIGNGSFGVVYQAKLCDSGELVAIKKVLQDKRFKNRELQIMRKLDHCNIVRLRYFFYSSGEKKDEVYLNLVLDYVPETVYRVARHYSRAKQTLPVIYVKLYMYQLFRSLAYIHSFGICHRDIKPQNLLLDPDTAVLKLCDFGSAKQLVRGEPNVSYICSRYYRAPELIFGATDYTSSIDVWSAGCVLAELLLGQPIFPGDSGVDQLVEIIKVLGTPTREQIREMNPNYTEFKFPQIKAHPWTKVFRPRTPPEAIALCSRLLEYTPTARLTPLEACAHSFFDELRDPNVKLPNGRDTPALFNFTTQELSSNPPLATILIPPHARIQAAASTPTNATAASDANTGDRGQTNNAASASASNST

DYRK2 = DYRK2 (Homo sapiens, UniProt Q92630); test: Kinase selectivity profiling
DDR2 = DDR2 (Homo sapiens, UniProt Q16832); test: Kinase selectivity profiling
CK2α2/β = CK2α2/β (Homo sapiens, UniProt P19784); test: Kinase selectivity profiling
Chain of CK2α2/β (P19784 whole entry): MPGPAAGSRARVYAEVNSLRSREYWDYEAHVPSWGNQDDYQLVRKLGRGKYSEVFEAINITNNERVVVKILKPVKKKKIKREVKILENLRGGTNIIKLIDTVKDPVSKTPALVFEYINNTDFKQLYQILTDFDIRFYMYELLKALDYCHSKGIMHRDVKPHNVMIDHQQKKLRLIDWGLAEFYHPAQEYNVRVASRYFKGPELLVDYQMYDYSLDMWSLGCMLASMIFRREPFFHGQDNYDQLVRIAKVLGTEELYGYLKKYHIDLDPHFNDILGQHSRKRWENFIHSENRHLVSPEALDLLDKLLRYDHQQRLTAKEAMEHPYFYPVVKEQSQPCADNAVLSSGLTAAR
Chain of CK2α2/β (P67870 whole entry partner): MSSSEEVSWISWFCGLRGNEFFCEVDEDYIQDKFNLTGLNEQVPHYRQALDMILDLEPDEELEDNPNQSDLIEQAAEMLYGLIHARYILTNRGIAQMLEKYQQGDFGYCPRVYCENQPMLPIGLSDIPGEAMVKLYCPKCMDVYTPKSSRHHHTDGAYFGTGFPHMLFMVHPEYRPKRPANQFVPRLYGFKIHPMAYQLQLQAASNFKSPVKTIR

Pkca = Pkca (Homo sapiens, UniProt P17252); test: Kinase selectivity profiling
CDK2/CycA2 = CDK2/CycA2 (Homo sapiens, UniProt P24941); test: Kinase selectivity profiling
FGR = FGR (Homo sapiens, UniProt P09769); test: Kinase selectivity profiling
HER2 = HER2 (Homo sapiens, UniProt P04626); test: Kinase selectivity profiling
RET = RET (Homo sapiens, UniProt P07949); test: Kinase selectivity profiling
PAK2 = PAK2 (Homo sapiens, UniProt Q13177); test: Kinase selectivity profiling
Chain of PAK2 (Q13177 whole entry): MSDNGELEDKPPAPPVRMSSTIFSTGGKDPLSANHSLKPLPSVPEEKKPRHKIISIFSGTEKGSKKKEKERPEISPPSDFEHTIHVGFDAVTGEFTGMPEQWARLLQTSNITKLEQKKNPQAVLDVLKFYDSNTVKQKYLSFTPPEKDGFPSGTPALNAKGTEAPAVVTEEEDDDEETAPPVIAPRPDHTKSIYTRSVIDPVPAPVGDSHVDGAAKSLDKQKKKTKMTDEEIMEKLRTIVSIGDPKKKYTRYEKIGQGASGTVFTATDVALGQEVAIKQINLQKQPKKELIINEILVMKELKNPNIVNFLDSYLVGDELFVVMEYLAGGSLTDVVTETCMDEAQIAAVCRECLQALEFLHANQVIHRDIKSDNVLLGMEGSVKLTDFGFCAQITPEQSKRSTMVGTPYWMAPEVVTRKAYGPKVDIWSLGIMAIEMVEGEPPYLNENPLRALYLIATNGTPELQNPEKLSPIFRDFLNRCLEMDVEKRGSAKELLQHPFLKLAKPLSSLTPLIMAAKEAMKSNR

CK1γ2 = CK1γ2 (Homo sapiens, UniProt P78368); test: Kinase selectivity profiling
FGFR3 = FGFR3 (Homo sapiens, UniProt P22607); test: Kinase inhibition assay (ADP-Glo); type: biochemical; parameters: FGFR3 (residues 450–758); 6xHis + PreScission site (N, cleaved yes); made in house; host or cells: Escherichia coli Rosseta
Protocol: as §1, §2

PIK3CD/PIK3R1 = PIK3CD/PIK3R1 (Homo sapiens, UniProt O00329); test: Kinase selectivity profiling
Chain of PIK3CD/PIK3R1 (O00329 whole entry): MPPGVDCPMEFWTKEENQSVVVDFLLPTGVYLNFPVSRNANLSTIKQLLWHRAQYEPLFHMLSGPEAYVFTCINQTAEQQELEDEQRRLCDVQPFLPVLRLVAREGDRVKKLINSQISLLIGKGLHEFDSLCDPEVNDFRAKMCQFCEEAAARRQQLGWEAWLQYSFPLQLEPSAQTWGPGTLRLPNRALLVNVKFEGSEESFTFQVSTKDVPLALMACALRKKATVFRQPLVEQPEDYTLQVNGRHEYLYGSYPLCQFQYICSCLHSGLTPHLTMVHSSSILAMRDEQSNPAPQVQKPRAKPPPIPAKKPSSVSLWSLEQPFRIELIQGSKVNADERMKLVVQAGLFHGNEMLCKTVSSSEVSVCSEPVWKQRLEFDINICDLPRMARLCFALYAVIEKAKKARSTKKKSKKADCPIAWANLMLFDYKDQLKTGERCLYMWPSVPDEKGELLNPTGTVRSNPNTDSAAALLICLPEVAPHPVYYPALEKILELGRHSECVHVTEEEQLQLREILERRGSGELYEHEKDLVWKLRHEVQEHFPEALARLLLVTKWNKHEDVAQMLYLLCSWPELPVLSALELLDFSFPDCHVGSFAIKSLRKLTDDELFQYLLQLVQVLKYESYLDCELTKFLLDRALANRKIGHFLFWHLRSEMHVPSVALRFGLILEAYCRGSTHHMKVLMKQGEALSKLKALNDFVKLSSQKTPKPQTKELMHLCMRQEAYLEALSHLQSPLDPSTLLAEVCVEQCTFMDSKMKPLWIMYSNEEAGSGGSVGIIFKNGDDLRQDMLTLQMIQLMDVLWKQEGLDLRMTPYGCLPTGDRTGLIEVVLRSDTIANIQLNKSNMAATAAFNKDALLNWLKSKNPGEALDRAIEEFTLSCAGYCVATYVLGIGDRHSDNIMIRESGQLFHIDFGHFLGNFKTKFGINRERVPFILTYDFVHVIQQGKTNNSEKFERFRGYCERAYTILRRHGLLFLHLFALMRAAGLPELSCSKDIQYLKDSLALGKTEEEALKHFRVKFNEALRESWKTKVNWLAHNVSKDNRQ
Chain of PIK3CD/PIK3R1 (P27986 whole entry partner): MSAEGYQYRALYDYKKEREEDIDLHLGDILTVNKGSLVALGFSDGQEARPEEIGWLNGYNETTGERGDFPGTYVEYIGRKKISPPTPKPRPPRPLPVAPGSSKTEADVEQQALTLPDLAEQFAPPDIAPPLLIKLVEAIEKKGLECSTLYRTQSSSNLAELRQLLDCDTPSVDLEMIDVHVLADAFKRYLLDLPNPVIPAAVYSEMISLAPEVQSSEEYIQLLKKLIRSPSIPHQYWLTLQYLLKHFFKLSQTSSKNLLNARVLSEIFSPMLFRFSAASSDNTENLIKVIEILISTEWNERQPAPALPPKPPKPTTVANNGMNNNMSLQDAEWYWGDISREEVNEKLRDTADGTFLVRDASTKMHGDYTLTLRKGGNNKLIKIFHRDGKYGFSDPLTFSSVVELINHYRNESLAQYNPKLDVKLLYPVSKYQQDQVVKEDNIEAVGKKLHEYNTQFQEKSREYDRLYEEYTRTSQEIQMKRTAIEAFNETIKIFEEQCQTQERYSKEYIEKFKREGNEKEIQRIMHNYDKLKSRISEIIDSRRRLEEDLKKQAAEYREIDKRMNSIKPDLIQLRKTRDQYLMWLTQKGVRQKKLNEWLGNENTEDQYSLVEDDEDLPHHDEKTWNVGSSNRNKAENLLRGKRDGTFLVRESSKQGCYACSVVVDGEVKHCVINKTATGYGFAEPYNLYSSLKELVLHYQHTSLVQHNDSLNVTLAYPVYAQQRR

NEK2 = NEK2 (Homo sapiens, UniProt P51955); test: Kinase selectivity profiling
Chain of NEK2 (P51955 whole entry): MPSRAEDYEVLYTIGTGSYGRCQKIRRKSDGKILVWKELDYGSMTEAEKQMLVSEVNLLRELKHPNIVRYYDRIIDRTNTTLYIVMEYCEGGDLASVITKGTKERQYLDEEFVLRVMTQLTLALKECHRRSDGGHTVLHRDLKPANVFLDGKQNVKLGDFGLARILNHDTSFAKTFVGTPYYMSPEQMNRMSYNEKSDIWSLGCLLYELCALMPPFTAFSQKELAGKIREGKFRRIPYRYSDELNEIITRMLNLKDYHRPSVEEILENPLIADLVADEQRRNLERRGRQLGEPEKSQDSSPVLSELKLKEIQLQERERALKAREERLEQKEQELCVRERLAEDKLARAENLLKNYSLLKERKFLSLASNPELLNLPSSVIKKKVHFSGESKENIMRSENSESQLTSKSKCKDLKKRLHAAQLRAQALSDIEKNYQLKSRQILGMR

AurA = AurA (Homo sapiens, UniProt O14965); test: Kinase selectivity profiling

Chain of DCAMKL2 (Q8N568 whole entry): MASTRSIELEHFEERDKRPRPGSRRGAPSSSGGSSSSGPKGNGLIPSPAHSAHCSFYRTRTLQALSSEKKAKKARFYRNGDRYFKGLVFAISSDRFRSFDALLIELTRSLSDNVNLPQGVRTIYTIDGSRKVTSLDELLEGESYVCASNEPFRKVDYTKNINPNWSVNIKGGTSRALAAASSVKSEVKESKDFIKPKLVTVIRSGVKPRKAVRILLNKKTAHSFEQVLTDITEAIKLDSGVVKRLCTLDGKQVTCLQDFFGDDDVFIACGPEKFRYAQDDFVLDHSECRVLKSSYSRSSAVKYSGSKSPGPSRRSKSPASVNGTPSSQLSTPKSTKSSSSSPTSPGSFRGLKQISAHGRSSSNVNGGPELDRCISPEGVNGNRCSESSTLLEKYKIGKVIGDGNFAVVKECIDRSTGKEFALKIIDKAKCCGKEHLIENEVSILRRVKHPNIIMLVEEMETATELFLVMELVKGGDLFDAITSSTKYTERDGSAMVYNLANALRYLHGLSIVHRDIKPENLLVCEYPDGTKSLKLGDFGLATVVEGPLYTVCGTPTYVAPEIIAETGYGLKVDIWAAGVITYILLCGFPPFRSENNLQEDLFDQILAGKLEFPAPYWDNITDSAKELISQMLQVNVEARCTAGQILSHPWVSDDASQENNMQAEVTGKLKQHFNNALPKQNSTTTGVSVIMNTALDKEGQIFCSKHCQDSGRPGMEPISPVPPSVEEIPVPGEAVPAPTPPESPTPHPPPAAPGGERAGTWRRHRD

SMILES: C=CC(=O)Nc1ccccc1Nc1ncc2c(n1)N(CCCN1CCN(C(=O)C=C)CC1)C(=O)N(c1cc(OC)cc(OC)c1)C2 [CXF-009]
- inhibition at 1 µM (MAP2K1): 0.59%
- inhibition at 1 µM (DCAMKL2): 18.9%
- inhibition at 1 µM (FYNa): -9.44%
- inhibition at 1 µM (EPHB1): -1.49%
- inhibition at 1 µM (PLK3): -1.12%
- inhibition at 1 µM (p38α): 10.6%
- inhibition at 1 µM (AKT3): -0.52%
- inhibition at 1 µM (ROCK1): 5.09%
- IC50 (FGFR2): 2410 nM
- inhibition at 1 µM (HIPK1): -5.67%
- inhibition at 1 µM (CK1γ1): 4.78%
- inhibition at 1 µM (TRKB): 42.1%
- inhibition at 1 µM (GSK3β): -0.37%
- inhibition at 1 µM (DYRK2): 0.38%
- inhibition at 1 µM (DDR2): 2.15%
- inhibition at 1 µM (CK2α2/β): -7.98%
- inhibition at 1 µM (Pkca): 1.73%
- inhibition at 1 µM (CDK2/CycA2): -2.58%
- inhibition at 1 µM (FGR): -1.1%
- inhibition at 1 µM (HER2): 10.7%
- inhibition at 1 µM (RET): 1.72%
- inhibition at 1 µM (PAK2): 3.22%
- inhibition at 1 µM (CK1γ2): -4.8%
- IC50 (FGFR3): 977 nM
- inhibition at 1 µM (PIK3CD/PIK3R1): -44.4%
- inhibition at 1 µM (NEK2): 17.9%
- inhibition at 1 µM (AurA): 15.4%

Source: publication PMC9814781, “Structure-based design of a dual-warhead covalent inhibitor of FGFR4” (Communications Chemistry, 2022)
